Assay results as given in patent US11939314B2, “Quinolin-2-one derivatives” (MERCK PATENT GMBH, priority 2016, dated 2024).
pIC50: −log10 of the molar value.

Assays:
[1] = molecular target: T1, c-Kit(V654A) (Homo sapiens, UniProt P10721, V654A); experiment: c-Kit(V654A) assay; format: biochemical; conditions: recombinant human c-Kit aa 544-end, 200 μM ATP, 1.4E-06 means 1.4×10^−6, read-out: Inhibition (IC50) of c-KIT (V654A)
T1 construct: amino acids 544-end containing the V654A mutation; GST (N)
T1 sequence (P10721 544-976 V654A): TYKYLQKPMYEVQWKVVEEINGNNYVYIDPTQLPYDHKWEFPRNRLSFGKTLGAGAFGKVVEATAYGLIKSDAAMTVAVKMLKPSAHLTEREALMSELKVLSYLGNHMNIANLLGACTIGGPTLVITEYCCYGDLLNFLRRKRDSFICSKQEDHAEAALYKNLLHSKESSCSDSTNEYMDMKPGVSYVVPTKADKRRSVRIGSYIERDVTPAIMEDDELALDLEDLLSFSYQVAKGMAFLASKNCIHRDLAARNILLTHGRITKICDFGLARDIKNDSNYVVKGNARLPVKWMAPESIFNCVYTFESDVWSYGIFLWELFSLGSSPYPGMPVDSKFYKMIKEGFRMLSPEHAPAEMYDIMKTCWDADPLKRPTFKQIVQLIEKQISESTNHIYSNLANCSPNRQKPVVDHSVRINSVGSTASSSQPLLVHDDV
In short: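 Radiometric filter-binding read-out: substrate 33P incorporation counted by scintillation after P30 filtermat washes in 75 mM phosphoric acid and methanol. Enzyme: N-GST recombinant human c-Kit aa 544-end carrying V654A.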

[2] = molecular target: T2, PDGFRalpha(V561D) (Homo sapiens, UniProt P16234, V561D); experiment: PDGFRalpha(V561D) assay; format: biochemical; conditions: recombinant human PDGFRalpha aa 550-end, 200 μM ATP, 1.4E-06 means 1.4×10^−6, read-out: Inhibition (IC50) of PDGFRα (V561D)
T2 construct: recombinant human PDGFRalpha, amino acids 550end containing the V561 D mutation; 6His (N)
T2 sequence (P16234 550-1089 V561D): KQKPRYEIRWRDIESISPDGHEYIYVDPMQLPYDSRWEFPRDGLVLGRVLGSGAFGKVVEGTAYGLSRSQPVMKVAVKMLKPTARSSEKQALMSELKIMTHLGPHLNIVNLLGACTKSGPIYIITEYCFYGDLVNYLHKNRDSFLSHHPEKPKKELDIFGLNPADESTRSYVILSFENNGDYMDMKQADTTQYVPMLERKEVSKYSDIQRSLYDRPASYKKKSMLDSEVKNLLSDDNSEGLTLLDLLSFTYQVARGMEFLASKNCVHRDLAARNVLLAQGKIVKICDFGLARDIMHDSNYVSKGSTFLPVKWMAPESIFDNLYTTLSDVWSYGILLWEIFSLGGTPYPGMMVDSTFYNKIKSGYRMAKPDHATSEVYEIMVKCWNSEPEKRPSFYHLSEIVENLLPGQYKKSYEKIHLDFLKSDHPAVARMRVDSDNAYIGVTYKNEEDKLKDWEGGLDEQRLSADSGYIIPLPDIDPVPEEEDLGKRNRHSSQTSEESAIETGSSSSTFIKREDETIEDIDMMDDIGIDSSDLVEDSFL
In short: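 Radiometric filter-binding assay: substrate phosphorylation by recombinant N-His-tagged human PDGFRα 550-end V561D was quenched with 3% phosphoric acid after 40 min at room temperature, then counted.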

SMILES	pIC50 [1]	pIC50 [2]
CN1CCN(C(=O)c2ccc(-n3cc(-c4cc5cc(F)c(F)cc5[nH]c4=O)nn3)cc2)CC1 [A157, 6,7-difluoro-3-{1-[4-(4-methyl-piperazine-1-carbonyl)-phenyl]-1H-[1,2,3]triazol-4-yl}-1H-quinolin-2-one]	8.23	9.49
CN1CCC(C(=O)c2ccc(-n3cc(-c4cc5cc(F)ccc5[nH]c4=O)nn3)cc2)CC1 [A161, 6-fluoro-3-{1-[4-(1-methyl-piperidine-4-carbonyl)-phenyl]-1H-[1,2,3]triazol-4-yl}-1H-quinolin-2-one]	7.46	7.82
CN1CCN(CCCOc2ccc(-n3cc(-c4cc5cc(F)c(F)cc5[nH]c4=O)nn3)cc2)CC1 [A162, 6,7-difluoro-3-(1-{4-[3-(4-methyl-piperazin-1-yl)-propoxy]-phenyl}-1H-[1,2,3]triazol-4-yl)-1H-quinolin-2-one]	7.09	7.01
CN1CCC(CCOc2ccc(-n3cc(-c4cc5cc(F)ccc5[nH]c4=O)nn3)cc2)CC1 [A163, 6-fluoro-3-(1-{4-[2-(1-methyl-piperidin-4-yl)-ethoxy]-phenyl}-1H-[1,2,3]triazol-4-yl)-1H-quinolin-2-one]	8.00	7.35
CN1CCC(C(=O)c2ccc(-n3cc(-c4cc5cc(F)c(F)cc5[nH]c4=O)nn3)cc2)CC1 [A164, 6,7-difluoro-3-{1-[4-(1-methyl-piperidine-4-carbonyl)-phenyl]-1H-[1,2,3]triazol-4-yl}-1H-quinolin-2-one]	8.08	7.96
CN1CCN(C(=O)COc2ccc(-n3cc(-c4cc5cc(F)ccc5[nH]c4=O)nn3)cc2)CC1 [A165, 6-fluoro-3-(1-{4-[2-(4-methyl-piperazin-1-yl)-2-oxo-ethoxy]-phenyl}-1H-[1,2,3]triazol-4-yl)-1H-quinolin-2-one]	7.52	7.48
CN1CCC(CCOc2ccc(-n3cc(-c4cc5cc(F)c(F)cc5[nH]c4=O)nn3)cc2)CC1 [A166, 6,7-difluoro-3-(1-{4-[2-(1-methyl-piperidin-4-yl)-ethoxy]-phenyl}-1H-[1,2,3]triazol-4-yl)-1H-quinolin-2-one]	8.10	7.37
CN1CCN(C(=O)COc2ccc(-n3cc(-c4cc5cc(F)c(F)cc5[nH]c4=O)nn3)cc2)CC1 [A167, 6,7-difluoro-3-(1-{4-[2-(4-methyl-piperazin-1-yl)-2-oxo-ethoxy]-phenyl}-1H-[1,2,3]triazol-4-yl)-1H-quinolin-2-one]	7.74	7.68
Cc1ccc2[nH]c(=O)c(-c3cn(-c4ccc(C(=O)N5CCN(C)CC5)cc4)nn3)cc2c1 [A168, 6-methyl-3-{1-[4-(4-methyl-piperazine-1-carbonyl)-phenyl]-1H-[1,2,3]triazol-4-yl}-1H-quinolin-2-one]	7.43	7.00
CN1CCN(C(=O)Cc2ccc(-n3cc(-c4cc5cc(F)c(F)cc5[nH]c4=O)nn3)cc2)CC1 [A169, 6,7-difluoro-3-(1-{4-[2-(4-methyl-piperazin-1-yl)-2-oxo-ethyl]-phenyl}-1H-[1,2,3]triazol-4-yl)-1H-quinolin-2-one]	7.85	6.37
CN1CCN(C(=O)c2ccc(-n3cc(-c4cc5ccc(C(F)(F)F)cc5[nH]c4=O)nn3)cc2)CC1 [A170, 3-{1-[4-(4-methyl-piperazine-1-carbonyl)-phenyl]-1H-[1,2,3]triazol-4-yl}-7-trifluoromethyl-1H-quinolin-2-one]	5.74	4.92
CN(C)C1CCN(C(=O)c2ccc(-n3cc(-c4cc5cc(F)c(F)cc5[nH]c4=O)nn3)cc2)CC1 [A171, 3-{1-[4-(4-dimethylamino-piperidine-1-carbonyl)-phenyl]-1H-[1,2,3]triazol-4-yl}-6,7-difluoro-1H-quinolin-2-one]	7.77	6.72
CN(C)C1CCN(C(=O)c2ccc(-n3cc(-c4cc5cc(F)ccc5[nH]c4=O)nn3)cc2)CC1 [A172, 3-{1-[4-(4-dimethylamino-piperidine-1-carbonyl)-phenyl]-1H-[1,2,3]triazol-4-yl}-6-fluoro-1H-quinolin-2-one]	8.20	7.60
COCCN1CCN(C(=O)c2ccc(-n3cc(-c4cc5cc(F)cnc5[nH]c4=O)nn3)cc2)CC1 [A175, 6-Fluoro-3-(1-{4-[4-(2-methoxy-ethyl)-piperazine-1-carbonyl]-phenyl}-1H-[1,2,3]triazol-4-yl)-1H-[1,8]naphthyridin-2-one]	7.04	8.22
CN1CCN(CCOc2ccc(-n3cc(-c4cc5cc(F)ccc5[nH]c4=O)nn3)cc2)CC1 [A176, 6-fluoro-3-(1-{4-[2-(4-methyl-piperazin-1-yl)-ethoxy]-phenyl}-1H-[1,2,3]triazol-4-yl)-1H-quinolin-2-one]	8.17	8.80
N#Cc1ccc2cc(-c3cn(-c4ccc(C(=O)N5CCOCC5)cc4)nn3)c(=O)[nH]c2c1 [A177, 3-{1-[4-(morpholine-4-carbonyl)-phenyl]-1H-[1,2,3]triazol-4-yl}-2-oxo-1,2-dihydro-quinoline-7-carbonitrile]	6.77	7.24
CN1CCN(C(=O)Cn2ccc3cc(-n4cc(-c5cc6cc(F)ccc6[nH]c5=O)nn4)ccc32)CC1 [A178, 6-fluoro-3-(1-{1-[2-(4-methyl-piperazin-1-yl)-2-oxo-ethyl]-1H-indol-5-yl}-1H-[1,2,3]triazol-4-yl)-1H-quinolin-2-one]	8.41	8.89
CC(=O)O[C@@H]1CCN(C(=O)c2ccc(-n3cc(-c4cc5cc(F)ccc5[nH]c4=O)nn3)cc2)C1 [A179, acetic acid (R)-1-{4-[4-(6-fluoro-2-oxo-1,2-dihydro-quinolin-3-yl)-[1,2,3]triazol-1-yl]-benzoyl}-pyrrolidin-3-yl ester]	7.85	8.80
CC(=O)O[C@H]1CCN(C(=O)c2ccc(-n3cc(-c4cc5cc(F)ccc5[nH]c4=O)nn3)cc2)C1 [A180, acetic acid (S)-1-{4-[4-(6-fluoro-2-oxo-1,2-dihydro-quinolin-3-yl)-[1,2,3]triazol-1-yl]-benzoyl}-pyrrolidin-3-yl ester]	8.02	9.30
O=C(c1ccc(-n2cc(-c3cc4cc(F)ccc4[nH]c3=O)nn2)cc1)N1CC[C@@H](O)C1 [A181, 6-fluoro-3-{1-[4-((R)-3-hydroxy-pyrrolidine-1-carbonyl)-phenyl]-1H-[1,2,3]triazol-4-yl}-1H-quinolin-2-one]	8.07	9.15
O=C(c1ccc(-n2cc(-c3cc4cc(F)ccc4[nH]c3=O)nn2)cc1)N1CC[C@H](O)C1 [A182, 6-fluoro-3-{1-[4-((S)-3-hydroxy-pyrrolidine-1-carbonyl)-phenyl]-1H-[1,2,3]triazol-4-yl}-1H-quinolin-2-one]	7.89	8.92
O=C(c1ccc(-n2cc(-c3cc4cc(F)ccc4[nH]c3=O)nn2)cc1)N1CCC(O)CC1 [A183, 6-fluoro-3-{1-[4-(4-hydroxy-piperidine-1-carbonyl)-phenyl]-1H-[1,2,3]triazol-4-yl}-1H-quinolin-2-one]	8.12	7.59
O=C(c1ccc(-n2cc(-c3cc4cc(F)ccc4[nH]c3=O)nn2)cc1)N1CCCC(O)C1 (stereo not drawn) [A184, 6-fluoro-3-{1-[4-(3-hydroxy-piperidine-1-carbonyl)-phenyl]-1H-[1,2,3]triazol-4-yl}-1H-quinolin-2-one]	7.74	7.96
CCN(CC)CCNC(=O)c1ccc(-n2cc(-c3cc4cc(F)c(F)cc4[nH]c3=O)nn2)cc1 [A187, N-(2-diethylamino-ethyl)-4-[4-(6,7-difluoro-2-oxo-1,2-dihydro-quinolin-3-yl)-[1,2,3]triazol-1-yl]-benzamide]	7.44	7.12
CCN(CC)CCNC(=O)c1ccc(-n2cc(-c3cc4cc(F)c(Cl)cc4[nH]c3=O)nn2)cc1 [A188, 4-[4-(7-chloro-6-fluoro-2-oxo-1,2-dihydro-quinolin-3-yl)-[1,2,3]triazol-1-yl]-N-(2-diethylamino-ethyl)-benzamide]	7.59	5.80
CCN(CC)CCN1CCN(C(=O)c2ccc(-n3cc(-c4cc5cc(F)c(F)cc5[nH]c4=O)nn3)cc2)CC1 [A189, 3-(1-{4-[4-(2-diethylamino-ethyl)-piperazine-1-carbonyl]-phenyl}-1H-[1,2,3]triazol-4-yl)-6,7-difluoro-1H-quinolin-2-one]	6.96	6.37
COC1CCN(C(=O)c2ccc(-n3cc(-c4cc5cc(F)ccc5[nH]c4=O)nn3)cc2)CC1 [A190, 6-fluoro-3-{1-[4-(4-methoxy-piperidine-1-carbonyl)-phenyl]-1H-[1,2,3]triazol-4-yl}-1H-quinolin-2-one]	8.01	7.19
COC1CCN(C(=O)c2ccc(-n3cc(-c4cc5cc(F)c(F)cc5[nH]c4=O)nn3)cc2)CC1 [A191, 6,7-difluoro-3-{1-[4-(4-methoxy-piperidine-1-carbonyl)-phenyl]-1H-[1,2,3]triazol-4-yl}-1H-quinolin-2-one]	7.82	6.62
CO[C@@H]1CCCN(C(=O)c2ccc(-n3cc(-c4cc5cc(F)c(F)cc5[nH]c4=O)nn3)cc2)C1 [A192, 6,7-difluoro-3-{1-[4-((R)-3-methoxy-piperidine-1-carbonyl)-phenyl]-1H-[1,2,3]triazol-4-yl}-1H-quinolin-2-one]	6.64	6.70
CO[C@H]1CCCN(C(=O)c2ccc(-n3cc(-c4cc5cc(F)c(F)cc5[nH]c4=O)nn3)cc2)C1 [A193, 6,7-difluoro-3-{1-[4-((S)-3-methoxy-piperidine-1-carbonyl)-phenyl]-1H-[1,2,3]triazol-4-yl}-1H-quinolin-2-one]	6.64	6.70
